Test results as given in ChEMBL document CHEMBL3352642, “6-Acetonyldihydrochelerythrine Is a Potent Inducer of Apoptosis in HCT116 and SW620 Colon Cancer Cells” (J Nat Prod, 2014).
pIC50: −log10 of the molar value. Calls of active or inactive are those of the source. The rule behind the calls is not given here.

Tests used:
[1] = system: HCT-116; assay: (§1) Induction of cell death in human HCT116 cells at IC50 after 72 hrs by Guava ViaCount assay relative to control; format: functional
[2] = system: SW-620; assay: Cytotoxicity against human SW620 cells assessed as cell death at 2 times IC50 after 72 hrs by LDH release assay relative to control; format: functional
[3] = system: SW-620; assay: Induction of apoptosis in human SW620 cells assessed as change in nuclear morphology at 2 times IC50 after 24 hrs by fluorescent microscopy relative to control; format: functional
[4] = system: HCT-116; assay: Induction of apoptosis in human HCT116 cells assessed as change in nuclear morphology at 2 times IC50 after 24 hrs by fluorescent microscopy relative to control; format: functional
[5] = system: HCT-116; assay: (§2) Cytotoxicity against human HCT116 cells assessed as cell death at IC50 after 72 hrs by LDH release assay relative to control; format: functional
[6] = system: SW-620; assay: Induction of cell death in human SW620 cells at IC50 after 72 hrs by Guava ViaCount assay relative to control; format: functional
[7] = system: SW-620; assay: Induction of cell death in human SW620 cells at 2 times IC50 after 72 hrs by Guava ViaCount assay relative to control; format: functional
[8] = system: HCT-116; assay: (§3) Induction of cell death in human HCT116 cells at 2 times IC50 after 72 hrs by Guava ViaCount assay relative to control; format: functional
[9] = Cytotoxicity against human HCT116 cells after 72 hrs by MTS assay; format: functional, cell-based; settings: HCT-116, 72 h
[10] = system: SW-620; assay: Cytotoxicity against human SW620 cells assessed as cell death at IC50 after 72 hrs by LDH release assay relative to control; format: functional
[11] = system: SW-620; assay: Cytotoxicity against human SW620 cells after 72 hrs by MTS assay; format: functional, cell-based; settings: SW-620, 72 h
[12] = system: HCT-116; assay: (§4) Cytotoxicity against human HCT116 cells assessed as cell death at 2 times IC50 after 72 hrs by LDH release assay relative to control; format: functional
[13] = system: HCT-116; assay: Induction of apoptosis in human HCT116 cells assessed as change in nuclear morphology at IC50 after 24 hrs by fluorescent microscopy relative to control; format: functional
[14] = system: SW-620; assay: Induction of apoptosis in human SW620 cells assessed as reduction in Bcl-XL expression at 1 to 2 times IC50 after 72 hrs by immunoblot analysis relative to control; format: functional, cell-based
[15] = as §1; format: functional, HCT-116
[16] = system: SW-620; assay: Induction of apoptosis in human SW620 cells assessed as increase in p53 expression at 1 to 2 times IC50 after 72 hrs by immunoblot analysis relative to control; format: functional, cell-based
[17] = system: SW-620; assay: Induction of apoptosis in human SW620 cells assessed as reduction in Akt expression at 1 to 2 times IC50 after 72 hrs by immunoblot analysis relative to control; format: functional, cell-based
[18] = system: SW-620; assay: Induction of apoptosis in human SW620 cells assessed as change in nuclear morphology at IC50 after 24 hrs by fluorescent microscopy relative to control; format: functional
[19] = system: HCT-116; assay: Induction of apoptosis in human HCT116 cells assessed as increase in p53 expression at 1 to 2 times IC50 after 72 hrs by immunoblot analysis relative to control; format: functional, cell-based
[20] = system: HCT-116; assay: Induction of apoptosis in human HCT116 cells assessed as reduction in Bcl-2 expression at 1 to 2 times IC50 after 72 hrs by immunoblot analysis relative to control; format: functional, cell-based
[21] = system: SW-620; assay: Induction of apoptosis in human SW620 cells assessed as increase in PARP cleavage at 1 to 2 times IC50 after 72 hrs by immunoblot analysis relative to control; format: functional, cell-based
[22] = system: HCT-116; assay: Induction of apoptosis in human HCT116 cells assessed as reduction in Bcl-XL expression at 1 to 2 times IC50 after 72 hrs by immunoblot analysis relative to control; format: functional, cell-based
[23] = system: HCT-116; assay: Induction of apoptosis in human HCT116 cells assessed as reduction in Akt expression at 1 to 2 times IC50 after 72 hrs by immunoblot analysis relative to control; format: functional, cell-based
[24] = system: HCT-116; assay: Induction of apoptosis in human HCT116 cells assessed as reduction in ERK5 expression at 1 to 2 times IC50 after 72 hrs by immunoblot analysis relative to control; format: functional, cell-based
[25] = as §2; format: functional, HCT-116
[26] = system: SW-620; assay: Induction of apoptosis in human SW620 cells assessed as reduction in XIAP expression at 1 to 2 times IC50 after 72 hrs by immunoblot analysis relative to control; format: functional, cell-based
[27] = system: SW-620; assay: Induction of apoptosis in human SW620 cells assessed as reduction in ERK5 expression at 1 to 2 times IC50 after 72 hrs by immunoblot analysis relative to control; format: functional, cell-based
[28] = system: HCT-116; assay: Induction of apoptosis in human HCT116 cells assessed as increase in PARP cleavage at 1 to 2 times IC50 after 72 hrs by immunoblot analysis relative to control; format: functional, cell-based
[29] = as §3; format: functional, HCT-116
[30] = system: HCT-116; assay: Induction of apoptosis in human HCT116 cells assessed as reduction in XIAP expression at 1 to 2 times IC50 after 72 hrs by immunoblot analysis relative to control; format: functional, cell-based
[31] = system: SW-620; assay: Induction of apoptosis in human SW620 cells assessed as reduction in Bcl-2 expression at 1 to 2 times IC50 after 72 hrs by immunoblot analysis relative to control; format: functional, cell-based
[32] = as §4; format: functional, HCT-116

O=c1[nH]cc(F)c(=O)[nH]1 [FLUOROURACIL]
Activity [1]: Active | fold change (FC) [2]: 1.9 | Activity [3]: 13% | Activity [4]: <10% | Activity [5]: Active | Activity [6]: Active | Activity [7]: Active | Activity [8]: Active | pIC50 [9]: 6.30 | fold change (FC) [10]: 1.1 | pIC50 [11]: 5.28 | Activity [12]: Active

COc1ccc2c(c1OC)[C@H](CC(C)=O)N(C)c1c-2ccc2cc3c(cc12)OCO3
Activity [13]: 19% | Activity [14]: Active | Activity [15]: 25% | Activity [16]: Active | Activity [17]: Active | Activity [18]: 22% | fold change (FC) [2]: 1.1 | Activity [3]: 27% | Activity [4]: 22% | Activity [19]: Active | Activity [20]: Active | Activity [21]: Active | Activity [22]: Active | Activity [23]: Active | Activity [24]: Active | fold change (FC) [25]: 1.2 | Activity [6]: 34% | Activity [26]: Active | Activity [7]: 65% | Activity [27]: Active | Activity [28]: Active | Activity [29]: 65% | pIC50 [9]: 5.62 | Activity [30]: Active | Activity [31]: Active | pIC50 [11]: 5.42 | fold change (FC) [32]: 1.3
